This passage reports IC50 results from patent US5525594A, “Treatment of hyperandrogenic disorders” (Roussel Uclaf, priority 1993, dated 1996).

The target of the assay is T1, 5α-reductase (Homo sapiens, UniProt P31213).
T1 construct: Homogenates of human prostates obtained by radical prostatectomies; from tissue; host or cells: human prostate from radical prostatectomy for benign hyperplasia; resuspended 140,000 g pellet of the homogenate
T1 sequence (P31213 1-254): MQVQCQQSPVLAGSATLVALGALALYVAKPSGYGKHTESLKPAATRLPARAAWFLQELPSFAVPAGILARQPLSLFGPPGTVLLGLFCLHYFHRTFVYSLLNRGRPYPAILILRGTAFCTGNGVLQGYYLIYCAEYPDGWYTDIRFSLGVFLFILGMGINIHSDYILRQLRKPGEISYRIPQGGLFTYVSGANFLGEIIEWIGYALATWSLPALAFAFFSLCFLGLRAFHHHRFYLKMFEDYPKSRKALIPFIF
Description: 5α-reductase activity test in vitro, human prostate homogenate, testosterone substrate, HPLC measurement of 5α-reduced metabolites. It counts as biochemical. The settings on record: homogenates of human prostates (BHP), pH 5.5, 37° C., 30 minutes, read-out: IC50 for inhibition of the 5α-reductase activity of the control. The method, then:
The test for measuring the 5α-reductase activity was carried cut in vitro by incubating the enzyme and its substrate (testosterone) and by measuring by HPLC chromatography the amount of 5α-reduced metabolites formed (dihydrotestosterone (DHT) and 5α-androstane-diol). Homogenates of human prostates obtained by radical prostatectomies due to benign hyperplasia of the prostate (BHP) were used.
The prostate was collected straight after leaving the operating theater suite and packed in aluminum paper placed in a container filled with dry ice. At the laboratory, if the homogenate was not prepared immediately, the prostate could be stored at -80° C. […]
b) Mixture of "unlabelled" testosterone and "tritiated testosterone" with an isotopic dilution of 100: To obtain a 1 mM solution of testosterone, 2.88 mg of "unlabelled" testosterone were weighed out which was dissolved in 10 ml of ethanol. […] Substrate (S) was ready. […]
The amounts of metabolites produced during the incubation were measured by separating the compounds formed by reversed-phase high performance liquid chromatography (HPLC). […] The extract collected after extraction was injected automatically onto the HPLC system and by the linear radioactivity measurement system (Berthold), only the radioactive metabolites, formed from the testosterone labelled with the substrate, were evaluated. […]

By IC50 is commonly meant the concentration needed to halve the response being measured. With oenotheine B, the IC50 was 22 µM.
